The source of these data is patent US20090123389A1, “Methods for modulating Th17 cell development in the treatment and prevention of cellulite” (priority 2007, published 2009).

“And” between values parts separate entries of the source, which are not always exact repeats. Equal entries are not always repeated.

One series concerns splenocytes. Put plainly: In vivo activation of the AAR pathway in splenocytes of treated mice. Further details: species or system C57B/6 mice. The following applies: 2.5 μg HF i.p., 6 hours post injection. How it is done:
FIG. 20A is a graph depicting splenocytes from control- and HF-treated mice. C57B/6 mice were injected i.p. with vehicle (DMSO) or 2.5 μg HF. Spleens were harvested 6 hours post injection, red blood cells were lysed and total splenocytes were counted. Data are presented as mean cell counts±SD from 2 mice per group.
FIG. 20C is a graph depicting eIF2α expression in control- and HF-treated mice. Splenocytes from mice injected with DMSO or HF as above were harvested 6 hours post injection. Red blood cells were lysed and immunoblotting was performed on whole cell extracts for phosphorylated or total eIF2α as indicated.
FIG. 20D is a graph depicting the results of quantitative real-time PCR (qPCR) experiments performed for AAR-associated gene expression (Asns, Gpt2, eIF4Ebp1) using cDNA generated from splenocytes of mice injected with DMSO or HF as above. Expression of AAR-associated genes were normalized to Hprt levels and data are presented as mean relative expression from duplicate samples±SD.

Another series deals with dermal ECM deposition. The conditions noted are these: cited from earlier work.
The subject of series [1] is amino acid response (AAR) pathway. The experiment in a line: eIF2α phosphorylation and ATF4 protein in T cells (immunoblot). It counts as cell-based, mouse. As to the method:
Whole cell lysates were prepared 4 hours-post TCR activation and immunoblotting was performed with the indicated antibodies. ATF4 protein is indicated by arrowhead. NS—non-specific band.
FIG. 12E is an illustration depicting immunoblot analysis of purified CD4^+ CD25^− T cells activated through the TCR for the indicated times without exogenous cytokines in the presence of either 10 nM MAZ1310 or 10 nM HF as indicated. Whole cells lysates were prepared during the timecourse and immunoblotting was performed.
Cultures were further supplemented with either 10 nM MAZ1310 or 10 nM HF as indicated. Whole cell lysates were generated 4 hours after activation and immunoblotting was performed. Microarray data were generated from triplicate samples and all other data are representative of at least 2 similar experiments.
Western blotting: Whole cell lysates were generated from T cells activated for the indicated times. For STAT3 and Smad2/3 western blots cells were harvested, washed in PBS and lysed in 50 mM Tris, pH 7.4, 0.1% SDS, 1% Triton-×100, 140 mM NaCl, 1 mM EDTA, 1 mM EGTA supplemented with protease inhibitors tablets (Roche—Germany), 1 mM NaF and 1 mM Na3VO4. For eIF2α and ATF4 western blots, cells were harvested as above and lysed in 50 mM Tris, pH 7.4, 2% SDS, 20% glycerol and 2 mM EDTA supplemented with protease and phosphatase inhibitors as above. All lysates were cleared via centrifugation and 15-30 μg of protein was resolved by SDS-PAGE. Protein was transferred to nitrocellulose membranes, blocked and blotted using specific antibodies. Antibodies used for western blot analysis were anti-phospho-Smad2, anti-STAT3 (pY705), anti-STAT3, anti-eIF2α^pS51, anti-eIF2α, anti-GCN2^pT898, anti-GCN2 (all from cell signaling technology, Danvers, Mass.). Anti-ATF4/CREB2 and anti-β-actin were purchased from Santa Cruz biotechnology (Santa Cruz, Calif.). HRP-conjugated secondary antibodies were all purchased from Sigma, with the exception of HRP-conjugated anti-armenian hamster antibody (Jackson Immunoresearch—West Grove, Pa.).
In general terms: In western blotting, separated proteins are transferred to a membrane and probed.

The conditions of series [2]: cited from earlier work.
The next series has as its system T-cells and fibroblasts. The experiment in a line: Non-specific effects at high concentrations in vitro. The conditions noted are these: about 80 nM HF, primary T-cells. It counts as cell-based.
For a further series, the system named is STAT3. The experiment in a line: Kinetics of STAT3 phosphorylation in developing Th17 cells. It counts as cell-based, mouse. The conditions noted are these: TGFβ plus IL-6. As to the method: FIG. 11A is a series of graphs depicting representative histograms displaying the kinetics of STAT3 phosphorylation in developing Th17 cells treated with or without HF. Resting naïve T cells (shaded peak), T cells activated in the presence of TGFβ plus IL-6 (TGFβ/IL-6) treated with 10 nM MAZ1310, TGFβ/IL-6-activated T cells treated with 5 nM HF, TGFβ/IL-6-activated T cells treated with 10 nM HF. T cells were fixed at the indicated times and intracellular phospho-STAT3 staining was performed.
Whole cell lysates were generated at the indicated times following activation, and western blotting was performed using the indicated antibodies.
FACS analyses and sorting: All cell surface staining was performed in FACS buffer (PBS/2% FCS/0.1% NaN3) and antibodies were incubated with cells on ice for 20-30 minutes. Cells were washed with FACS buffer and fixed with FACS buffer plus 1% paraformaldehyde prior to data acquisition. For phospho-STAT3 intracellular staining, stimulated T cells cultured with or without TGFβ plus IL-6 for the indicated times were harvested on ice and fixed in PBS plus 2% paraformaldehyde for 10 minutes at 37° C. […] All FACS data was acquired on a FACSCalibur flow cytometer (BD Pharmingen) and analyzed using FlowJo software (Treestar, Inc., Ashland, Oreg.). […]

As to `O=C(CC1NCCCC1O)Cn1cnc2cc(Br)c(Cl)cc2c1=O` (racemic) [HF, 7-bromo-6-chloro-3-[3-(3-hydroxy-2-piperidinyl)-2-oxopropyl]-4(3H)-quinazolinone], in the series on splenocytes, the “eIF2α phosphorylation and AAR-associated gene expression in splenocytes of treated mice” value is given as “rapidly activates”. Moreover, in the series with dermal ECM deposition (intra-peritoneally, added to food, or applied locally), the “excess dermal ECM deposition” value is recorded as “reduces excess dermal ECM deposition”. For the same molecule, the wound healing entry in the series on dermal ECM deposition (topical HF, animal models) was “facilitate wound healing”. Further, in series [1] (10 nM HF), the “time at which eIF2α phosphorylation reached maximum levels” value was not above 2 h and the “time until which ATF4 protein continued to accumulate” value stood at 4 h. For the same molecule, in series [1] (10 nM HF, 4 hours), the “eIF2α phosphorylation in resting naïve T cells and T cells in Th17, ThN, Th1, Th2 and iTreg conditions” value is recorded as “induced eIF2α phosphorylation”; the “induction of ATF4 expression by T cell state” value is “in all differentiated T cells but not in naïve T cells”. In addition, in series [1] (4 hours-post TCR activation), the “HF concentration at which eIF2α phosphorylation plateaued” value lay within 5 to 10 nM, the “HF concentration inducing detectable eIF2α phosphorylation” value was determined as 2.5 nM, the “HF concentration with highest ATF4 expression levels” value was in the range of 5 to 10 nM and the “HF concentration with reduced ATF4 expression” value was 20 to 40 nM. Besides, the peak plasma concentration in series [2] (oral 3.5 mg/day) is 3 ng/ml and ~8 nM. Moreover, in series [2] (oral), the “dose at which dose limiting toxicity (nausea and vomiting) occurred” value is 3.5 mg/day; the “recommended tolerated dose for chronic treatment” value is 0.5 mg/day. The “T-cell proliferation at high concentrations” value with T-cells and fibroblasts is on record as “generalized inhibition”. The “STAT3 activation during the first 6 hours of Th17 differentiation” value in the series on STAT3 (5 or 10 nM HF) was “did not interfere”. In addition, the “maintenance of STAT3 phosphorylation” value with STAT3 (beginning around 12 hours-post activation) was “decreased the maintenance of STAT3 phosphorylation”.
